How the values were obtained:
ORYZA = experiment: Post-emergence damage to crop plants; assay type: in vivo, Oryza sativa; conditions: 5 g a.i./ha, comparative experiment
Experimental: (§1) Seeds of monocotyledonous and dicotyledonous weed and crop plants are laid out in sandy loam soil in wood-fibre pots, covered with soil and cultivated in a greenhouse under good growth conditions. 2 to 3 weeks after sowing, the test plants are treated at the one-leaf stage. The compounds of the invention, formulated in the form of wettable powders (WP) or as emulsion concentrates (EC), are then sprayed onto the green parts of the plants in the form of an aqueous suspension or emulsion at a water application rate equating to 600 to 800 l/ha, with addition of 0.2% wetting agent. After the test plants have been left to stand in the greenhouse under optimal growth conditions for about 3 weeks, the action of the preparations is assessed visually in comparison to untreated controls (herbicidal action in percent (%): 100% activity=the plants have died, 0% activity=like control plants). […] The tables below illustrate, in an illustrative manner, the post-emergence herbicidal action of the compounds of the invention, the herbicidal activity being stated in percent. In the experiments that follow, the herbicidal action of the compounds of the invention and that of the corresponding known racemic compounds closest from WO2012126932 and WO2018202535 were compared under the above-specified conditions by the pre-emergence and post-emergence method. The example numbers given in the tables relate to the compounds disclosed in the respective documents.

ECHCG [1] = experiment: Post-emergence herbicidal action; assay type: in vivo, Echinochloa crus-galli; conditions: for Herbicidal action against ECHCG: 5 g a.i./ha, comparative experiment; for Post-emergence action against ECHCG: assessed after about 3 weeks
Experimental: as §1

TRZAS [2] = experiment: Pre-emergence damage to crop plants; assay type: in vivo, Triticum aestiva; conditions: comparative experiment
Text: (§2) Seeds of monocotyledonous and dicotyledonous weed plants and crop plants are laid out in sandy loam soil in wood-fibre pots and covered with soil. The compounds of the invention, formulated in the form of wettable powders (WP) or as emulsion concentrates (EC), are then applied to the surface of the covering soil in the form of an aqueous suspension or emulsion at a water application rate equivalent to 600 to 800 l/ha, with addition of 0.2% wetting agent. After the treatment, the pots are placed in a greenhouse and kept under good growth conditions for the trial plants. The damage to the test plants is scored visually after a test period of 3 weeks by comparison with untreated controls (herbicidal activity in percent (%): 100% activity=the plants have died, 0% activity=like control plants). […] The tables below illustrate, in an illustrative manner, the post-emergence herbicidal action of the compounds of the invention, the herbicidal activity being stated in percent. In the experiments that follow, the herbicidal action of the compounds of the invention and that of the corresponding known racemic compounds closest from WO2012126932 and WO2018202535 were compared under the above-specified conditions by the pre-emergence and post-emergence method. The example numbers given in the tables relate to the compounds disclosed in the respective documents.

GLXMA = experiment: Pre-emergence damage to crop plants; assay type: in vivo, Glycine max; conditions: 80 g a.i./ha, comparative experiment
Text: as §2

MATIN [3] = experiment: Pre-emergence herbicidal action; assay type: in vivo, Matricaria inodora; conditions: scored after 3 weeks
Text: as §2

LOLRI = experiment: Pre-emergence herbicidal action; assay type: in vivo, Lolium rigidum; conditions: 80 g/ha, scored after 3 weeks
Text: as §2

ECHCG [4] = experiment: Pre-emergence herbicidal action; assay type: in vivo, Echinochloa crus-galli; conditions: scored after 3 weeks
Text: as §2, with “percent.” for “percent. In the experiments that follow, the herbicidal action of the compounds of the invention and that of the corresponding known racemic compounds closest from WO2012126932 and WO2018202535 were compared under the above-specified conditions by the pre-emergence and post-emergence method. The example numbers given in the tables relate to the compounds disclosed in the respective documents.”

AMARE [5] = experiment: Pre-emergence herbicidal action; assay type: in vivo, Amaranthus retroflexus; conditions: scored after 3 weeks
Text: as §2, with “percent.” for “percent. In the experiments that follow, the herbicidal action of the compounds of the invention and that of the corresponding known racemic compounds closest from WO2012126932 and WO2018202535 were compared under the above-specified conditions by the pre-emergence and post-emergence method. The example numbers given in the tables relate to the compounds disclosed in the respective documents.”

ALOMY = experiment: Pre-emergence herbicidal action; assay type: in vivo, Alopecurus myosuroides; conditions: 80 g/ha, scored after 3 weeks
Text: as §2

VERPE [6] = experiment: Pre-emergence herbicidal action; assay type: in vivo, Veronica persica; conditions: scored after 3 weeks
Text: as §2

AMARE [7] = experiment: Post-emergence herbicidal action; assay type: in vivo, Amaranthus retroflexus; conditions: assessed after about 3 weeks
Experimental: as §1, with “percent.” for “percent. In the experiments that follow, the herbicidal action of the compounds of the invention and that of the corresponding known racemic compounds closest from WO2012126932 and WO2018202535 were compared under the above-specified conditions by the pre-emergence and post-emergence method. The example numbers given in the tables relate to the compounds disclosed in the respective documents.”

VIOTR [8] = experiment: Pre-emergence herbicidal action; assay type: in vivo, Viola tricolor; conditions: scored after 3 weeks
Text: as §2, with “percent.” for “percent. In the experiments that follow, the herbicidal action of the compounds of the invention and that of the corresponding known racemic compounds closest from WO2012126932 and WO2018202535 were compared under the above-specified conditions by the pre-emergence and post-emergence method. The example numbers given in the tables relate to the compounds disclosed in the respective documents.”

POLCO [9] = experiment: Pre-emergence herbicidal action; assay type: in vivo, Polygonum convolvulus; conditions: 80 g/ha, scored after 3 weeks
Text: as §2

POLCO [10] = experiment: Post-emergence herbicidal action; assay type: in vivo, Polygonum convolvulus; conditions: 20 g/ha, assessed after about 3 weeks
Experimental: as §1, with “percent.” for “percent. In the experiments that follow, the herbicidal action of the compounds of the invention and that of the corresponding known racemic compounds closest from WO2012126932 and WO2018202535 were compared under the above-specified conditions by the pre-emergence and post-emergence method. The example numbers given in the tables relate to the compounds disclosed in the respective documents.”

SETVI [11] = experiment: Pre-emergence herbicidal action; assay type: in vivo, Setaria viridis; conditions: scored after 3 weeks
Text: as §2

AVEFA = experiment: Pre-emergence herbicidal action; assay type: in vivo, Avena fatua; conditions: 80 g/ha, scored after 3 weeks
Text: as §2

PHBPU = experiment: Post-emergence herbicidal action; assay type: in vivo, Pharbitis purpurea; conditions: assessed after about 3 weeks
Experimental: as §1, with “percent.” for “percent. In the experiments that follow, the herbicidal action of the compounds of the invention and that of the corresponding known racemic compounds closest from WO2012126932 and WO2018202535 were compared under the above-specified conditions by the pre-emergence and post-emergence method. The example numbers given in the tables relate to the compounds disclosed in the respective documents.”

VIOTR [12] = experiment: Post-emergence herbicidal action; assay type: in vivo, Viola tricolor; conditions: assessed after about 3 weeks
Experimental: as §1

VERPE [13] = experiment: Post-emergence herbicidal action; assay type: in vivo, Veronica persica; conditions: assessed after about 3 weeks
Experimental: as §1

SETVI [14] = experiment: Post-emergence herbicidal action; assay type: in vivo, Setaria viridis; conditions: assessed after about 3 weeks
Experimental: as §1

MATIN [15] = experiment: Post-emergence herbicidal action; assay type: in vivo, Matricaria inodora; conditions: assessed after about 3 weeks
Experimental: as §1, with “percent.” for “percent. In the experiments that follow, the herbicidal action of the compounds of the invention and that of the corresponding known racemic compounds closest from WO2012126932 and WO2018202535 were compared under the above-specified conditions by the pre-emergence and post-emergence method. The example numbers given in the tables relate to the compounds disclosed in the respective documents.”

DIGSA [16] = experiment: Pre-emergence herbicidal action; assay type: in vivo, Digitaria sanguinalis; conditions: scored after 3 weeks
Text: as §2, with “percent.” for “percent. In the experiments that follow, the herbicidal action of the compounds of the invention and that of the corresponding known racemic compounds closest from WO2012126932 and WO2018202535 were compared under the above-specified conditions by the pre-emergence and post-emergence method. The example numbers given in the tables relate to the compounds disclosed in the respective documents.”

TRZAS [17] = experiment: Post-emergence damage to crop plants; assay type: in vivo, Triticum aestiva; conditions: comparative experiment
Experimental: as §1

BRSNW = experiment: Pre-emergence damage to crop plants; assay type: in vivo, Brassica napus; conditions: 20 g a.i./ha, comparative experiment
Text: as §2

DIGSA [18] = experiment: Post-emergence herbicidal action; assay type: in vivo, Digitaria sanguinalis; conditions: assessed after about 3 weeks
Experimental: as §1

STEME [19] = experiment: Post-emergence herbicidal action; assay type: in vivo, Stellaria media; conditions: 20 g/ha, assessed after about 3 weeks
Experimental: as §1

ZEAMX = experiment: Pre-emergence damage to crop plants; assay type: in vivo, Zea mays; conditions: comparative experiment
Text: as §2

STEME [20] = experiment: Pre-emergence herbicidal action; assay type: in vivo, Stellaria media; conditions: scored after 3 weeks
Text: as §2

Row | SMILES | Damage to ORYZA (ORYZA) | Herbicidal action against ECHCG (ECHCG [1]) | Damage to TRZAS (TRZAS [2]; 20 g a.i./ha) | Damage to TRZAS (TRZAS [2]; 80 g a.i./ha) | Damage to GLXMA (GLXMA) | Pre-emergence action against MATIN (MATIN [3]; 80 g/ha) | Pre-emergence action against ECHCG (ECHCG [4]; 20 g/ha) | Pre-emergence action against ECHCG (ECHCG [4]; 80 g/ha) | Pre-emergence action against AMARE (AMARE [5]; 20 g/ha) | Pre-emergence action against AMARE (AMARE [5]; 80 g/ha) | Post-emergence action against ECHCG (ECHCG [1]; 5 g/ha) | Post-emergence action against ECHCG (ECHCG [1]; 20 g/ha) | Post-emergence action against AMARE (AMARE [7]; 5 g/ha) | Post-emergence action against AMARE (AMARE [7]; 20 g/ha) | Pre-emergence action against VIOTR (VIOTR [8]; 20 g/ha) | Pre-emergence action against VIOTR (VIOTR [8]; 80 g/ha) | Pre-emergence action against SETVI (SETVI [11]; 80 g/ha) | Post-emergence action against PHBPU (PHBPU; 20 g/ha) | Post-emergence action against VIOTR (VIOTR [12]; 20 g/ha) | Post-emergence action against SETVI (SETVI [14]; 20 g/ha) | other results
1 | C[S+]([O-])c1c(C(F)F)ccc(C(=O)Nc2nnco2)c1Cl (racemic) [Racemate, known from WO2018202535, 2-chloro-N-(1,3,4-oxadiazol-2-yl)-3-[(rac)-methylsulfinyl]-4-(difluoromethyl)benzamide, reference compound] | 60% | 70% | 70% | 100% | 80% |  |  |  |  |  |  |  |  |  |  |  |  |  |  |  | 
2 | C[S+]([O-])c1c(C(F)F)ccc(C(=O)Nc2nnco2)c1Cl (stereo in doubt) [Example I-2, 2-chloro-N-(1,3,4-oxadiazol-2-yl)-3-[(S)-methylsulfinyl]-4-(difluoromethyl)benzamide] | 0% | 90% | 20% | 70% | 30% | 100% | 100% | 100% | 100% | 100% | 90% | 90% | 100% | 100% | 100% | 100% | 100% | 90% | 100% | 90% | Pre-emergence action against MATIN (MATIN [3]; 20 g/ha): 100%; Pre-emergence action against LOLRI (LOLRI): 90%; Pre-emergence action against ALOMY (ALOMY): 90%; Pre-emergence action against VERPE (VERPE [6]; 20 g/ha): 80%; Pre-emergence action against VERPE (VERPE [6]; 80 g/ha): 80%; Pre-emergence action against POLCO (POLCO [9]): 90%; Post-emergence action against POLCO (POLCO [10]): 80%; Pre-emergence action against SETVI (SETVI [11]; 20 g/ha): 100%; Pre-emergence action against AVEFA (AVEFA): 100%; Post-emergence action against VIOTR (VIOTR [12]; 5 g/ha): 90%; Post-emergence action against VERPE (VERPE [13]; 5 g/ha): 90%; Post-emergence action against VERPE (VERPE [13]; 20 g/ha): 100%; Post-emergence action against SETVI (SETVI [14]; 5 g/ha): 90%; Post-emergence action against MATIN (MATIN [15]; 5 g/ha): 90%; Post-emergence action against MATIN (MATIN [15]; 20 g/ha): 90%
3 | Cc1c(C(=O)Nc2nnco2)ccc(C(F)(F)F)c1[S+](C)[O-] (stereo in doubt) [Example I-3, 2-methyl-N-(1,3,4-oxadiazol-2-yl)-3-[(S)-methylsulfinyl]-4-(trifluoromethyl)benzamide] | 30% |  | 0% | 30% | 50% | 90% | 90% | 100% | 100% | 100% | 80% | 90% | 90% | 90% | 90% | 100% | 90% | 80% | 90% | 90% | Pre-emergence action against DIGSA (DIGSA [16]; 20 g/ha): 100%; Pre-emergence action against DIGSA (DIGSA [16]; 80 g/ha): 100%; Damage to TRZAS (TRZAS [17]; 5 g a.i./ha): 20%; Damage to TRZAS (TRZAS [17]; 20 g a.i./ha): 30%; Damage to BRSNW (BRSNW): 70%; Post-emergence action against DIGSA (DIGSA [18]; 5 g/ha): 90%; Post-emergence action against DIGSA (DIGSA [18]; 20 g/ha): 90%; Post-emergence action against STEME (STEME [19]): 80%; Post-emergence action against PHBPU (PHBPU; 5 g/ha): 80%; Damage to ZEAMX (ZEAMX; 20 g a.i./ha): 0%; Damage to ZEAMX (ZEAMX; 80 g a.i./ha): 0%; Post-emergence action against MATIN (MATIN [15]; 20 g/ha): 80%; Pre-emergence action against STEME (STEME [20]; 20 g/ha): 80%; Pre-emergence action against STEME (STEME [20]; 80 g/ha): 100%
